Consider 14 compounds from patent US5747500A, “Antiviral 2, 4-pyrimidinedione derivatives” (priority 1993, dated 1998).

The subject of one data set is HIV. The experiment in a line: inhibition of HIV-induced cytopathic effect in MT-4 cells (MTT method). The format is cell-based. The following applies: for EC50: Human immunodeficiency virus 1, MT4, HIV-infected MT-4 cells, 1000 CCID50, 4 or 5 day incubation at 37° C., MTT method, read-out: ED50: Effective concentration for the inhibition of the proliferation of HIV by 50%; for S.I.: Selectivity index (CD50/ED50): ratio CD50/ED50, MT-4 cells. On the procedure: The anti-HIV assays were based on the inhibition of the virus-induced cytopathic effect in MT-4 cells as described in J. Virol. Methods, 16, 171 (1987). Briefly, MT-4 cells were suspended in culture medium at 2.5×10^5 cells/ml and infected with 1000 CCID50 (50% cell culture infective dose) of HIV. Immediately, after virus infection, 100 μl of the cell suspension was brought into each well of a flat-bottomedmicrotiter tray containing various concentrations of the test compounds. After a 4 or 5 day incubation at 37° C., the number of viable cells was determined by the 3-(4,5-dimethylthiazol-2-yl)-2,5-diphenyltetrazoliumbromide (MTT) method, as disclosed in J. Virol. Methods, 20, 309 (1988).
ED50 : Effective concentration for the inhibition of the
proliferation of HIV by 50%

Data set [1] can be described thus: cytotoxicity: viability of mock-infected MT-4 host cells (MTT method). The following applies: human, mt-4 cells, read-out: CD50: Cytotoxic concentration that causes death of cells by 50%. The format is cell-based. As for the experimental part:
The cytotoxicity of the compounds of the present invention was assessed in parallel with their antiviral activity. It was based on the viability of mock-infected host cells as determined by the MTT methods (se J. Virol. Methods, 20, 309 (1988)).
CD50 : Cytotoxic concentration that causes death of cells by 50%
In general terms: Tetrazolium dyes change colour on reduction, which living cells bring about.

In brackets after ≈: the same amount, converted by molar mass. Some results are limits rather than exact numbers.

On to `CCc1c(C(=O)c2cc(C)cc(C)c2)n(C/C=C/c2ccccc2)c(=O)[nH]c1=O` [Example 45, 1-(trans-cinnamyl)-5-ethyl-6-(3,5-dimethylbenzoyl)-2,4-pyrimidinedione], for which, in the data set on HIV, the EC50 is below 0.009 µg/mL and the “S.I.: Selectivity index (CD50/ED50)” value was above 663. The CC50 in data set [1] was found to be 5.97 µg/mL (≈ 15.4 µM).
The like results for `CCc1c(C(=O)c2cc(C)cc(C)c2)n(CC=C(C)C)c(=O)[nH]c1=O` [Example 7, 1-(3-methyl-2-butenyl)-5-ethyl-6-(3,5-dimethylbenzoyl)-2,4-pyrimidinedione] were, in that order, below 0.33 µg/mL, above 84 and 27.8 µg/mL (≈ 81.8 µM).
Consider `CCc1c(Sc2cc(C)cc(C)c2)n(C/C=C/CO)c(=O)[nH]c1=O` [Example 78, 1-(4-hydroxy-trans-2-butenyl)-5-ethyl-6-(3,5-dimethylphenylthio)-2,4-pyrimidinedione], for which, in the data set with HIV, the EC50 was below 0.97 µg/mL and the “S.I.: Selectivity index (CD50/ED50)” value is recorded as above 29. In addition, the CC50 in data set [1] stood at 29 µg/mL (≈ 83.6 µM).
Taken in the same sequence, the figures for `C/C=C/Cn1c(C(=O)c2cc(C)cc(C)c2)c(C(C)C)c(=O)[nH]c1=O` [Example 51] were below 0.01 µg/mL, > 2,473 and 22.3 µg/mL (≈ 65.4 µM).
`C#CCn1c(Oc2cc(C)cc(C)c2)c(CC)c(=O)[nH]c1=O` [Example 60, 1-propargyl-5-ethyl-6-(3,5-dimethylphenoxy)-2,4-pyrimidinedione]: in the data set on HIV, the EC50 is below 0.62 µg/mL and the “S.I.: Selectivity index (CD50/ED50)” value is listed as above 25. In addition, in data set [1], the CC50 was found to be 15.8 µg/mL (≈ 52.8 µM).
On to `CCc1c(Sc2cc(C)cc(C)c2)n(C/C=C/CCl)c(=O)[nH]c1=O` [Example 22], for which, in the data set with HIV, the EC50 was below 0.36 µg/mL and the “S.I.: Selectivity index (CD50/ED50)” value was above 93. Moreover, the CC50 in data set [1] turned out to be 33.8 µg/mL (≈ 92.6 µM).
In the case of `CC#CCn1c(Oc2cc(C)cc(C)c2)c(CC)c(=O)[nH]c1=O` [Example 58], in the data set on HIV, the EC50 is below 0.34 µg/mL and the “S.I.: Selectivity index (CD50/ED50)” value is above 143. In addition, the CC50 in data set [1] amounted to 48.9 µg/mL (≈ 157 µM).
The like results for `COC(=O)/C=C/Cn1c(Sc2cc(C)cc(C)c2)c(C(C)C)c(=O)[nH]c1=O` [Example 30] were, in that order, below 0.009 µg/mL, > 1,966 and 17.7 µg/mL (≈ 45.6 µM).
Taken in the same sequence, the figures for `C/C=C/Cn1c(Oc2cc(C)cc(C)c2)c(CC)c(=O)[nH]c1=O` [Example 10, 1-(trans-2-butenyl)-5-ethyl-6-(3,5-dimethylphenoxy)-2,4-pyrimidinedione] were below 0.01 µg/mL, > 1,939 and 19.4 µg/mL (≈ 61.7 µM).
As for `CCc1c(Cc2cc(C)cc(C)c2)n(CC#Cc2ccccc2)c(=O)[nH]c1=O` [Example 40, 1-(3-phenyl-2-propynyl)-5-ethyl-6-(3,5-dimethylbenzyl)-2,4-pyrimidinedione], in the data set on HIV, the EC50 was below 0.009 µg/mL and the “S.I.: Selectivity index (CD50/ED50)” value is on record as above 557. The CC50 in data set [1] is 5.02 µg/mL (≈ 13.5 µM).
The like results for `CCc1c(Sc2ccccc2)n(C/C=C\COCc2ccccc2)c(=O)[nH]c1=O` [Example 17] were, in that order, 3.68 µg/mL (≈ 9.01 µM), 1.57 and 5.79 µg/mL (≈ 14.2 µM).
As to `CC(=O)OC/C=C/Cn1c(C(=O)c2cc(C)cc(C)c2)c(C(C)C)c(=O)[nH]c1=O` [Example 75, 1-(4-acetoxy-trans-2-butenyl)-5-isopropyl-6-(3,5-dimethylbenzoyl)-2,4-pyrimidinedione], in the data set with HIV, the EC50 is below 0.009 µg/mL and the “S.I.: Selectivity index (CD50/ED50)” value is given as > 6,487. The CC50 in data set [1] was 58.4 µg/mL (≈ 147 µM).
The like results for `C=CCn1c(Oc2cc(C)cc(C)c2)c(CC)c(=O)[nH]c1=O` [Example 57, 1-allyl-5-ethyl-6-(3,5-dimethylphenoxy)-2,4-pyrimidinedione] were, in that order, below 0.32 µg/mL, above 132 and 42.4 µg/mL (≈ 141 µM).
The like results for `CCc1c(Sc2ccccc2)n(CC=C(C)C)c(=O)[nH]c1=O` [Example 15, 1-(3-methyl-2-butenyl)-5-ethyl-6-phenylthio-2,4-pyrimidinedione] were, in that order, 0.36 µg/mL (≈ 1.14 µM), 31 and 11.3 µg/mL (≈ 35.6 µM).
